Test results taken from ChEMBL document CHEMBL3046677, “Diastereoselective synthesis of the model insect antifeedants related to azadiradione and epoxyazadiradione based on intramolecular insertion of -aryl--diazoketones” (1998).

These compounds were tested on Spodoptera littoralis (assay: Antifeedant activity against Spodoptera littoralis assessed as antifeedant index at 100 ppm).
Type: functional

Compound | AFI [%]
CC1(C)CCC[C@@]2(C)[C@H](c3ccoc3)C(=O)[C@H]3O[C@@]312 (stereo in doubt; (+)) | 55
CC1(C)CCC[C@]2(C)C1=CC(=O)[C@H]2c1ccoc1 (racemic) | 16
CC1(C)CCC[C@@]2(C)[C@H](c3ccoc3)C(=O)[C@H]3O[C@@]312 (racemic) | 28
CC(=O)O[C@@H]1C[C@H]2C(C)(C)C(=O)C=C[C@]2(C)[C@H]2CC[C@@]3(C)[C@H](c4ccoc4)C(=O)[C@H]4O[C@]43[C@@]21C [EPOXYAZADIRADIONE] | 22
CC(=O)O[C@@H]1C[C@H]2C(C)(C)C(=O)C=C[C@]2(C)[C@H]2CC[C@]3(C)C(=CC(=O)[C@H]3c3ccoc3)[C@@]21C [AZADIRADIONE] | 1
CC1(C)CCC[C@@]2(C)[C@H](c3ccoc3)C(=O)[C@H]3O[C@@]312 (stereo in doubt; (-)) | 32

The compounds below were run on Spodoptera frugiperda (assay: Antifeedant activity against Spodoptera frugiperda (fall armyworm) assessed as antifeedant index at 100 ppm).
Type: functional

Compound | AFI [%]
O=C1C=C2CCCC[C@H]2[C@@H]1c1ccccc1 (racemic) | 40
O=C1[C@H]2O[C@]23CCCC[C@H]3[C@@H]1c1ccsc1 (racemic) | 36
C[C@@H]1CCC[C@@]2(C)[C@H](c3ccoc3)C(=O)[C@H]3O[C@]132 (racemic) | 29
O=C1C=C2CCCC[C@H]2[C@@H]1c1ccoc1 (racemic) | 42
O=C1[C@H]2O[C@]23CCCC[C@H]3[C@@H]1c1ccccc1 (racemic) | -12
O=C1C=C2CCCC[C@H]2[C@@H]1c1ccsc1 (racemic) | 1
